Reference: the NIST ThermoML archive (doi:10.1016/j.jct.2019.01.024)
± gives the expanded uncertainty stated by the source.

Test: mn = molality of the nth substance listed, in mol/kg
Conditions: 101 kPa, Liquid, m2 = 0; for viscosity: Falling or rolling sphere viscometry; for speed of sound: Frequency=3 MHz, Single path-length method

With `O` [water] + NNC(=O)c1ccncc1 the viscosity (293.15 K) was 1.002 ± 0.061 mPa·s, the speed of sound (293.15 K) was 1483.6 ± 7 m/s and the viscosity (298.15 K) was 0.8903 ± 0.054 mPa·s. The viscosity (303.15 K) was 0.7973 ± 0.048 mPa·s, the speed of sound (303.15 K) was 1508.4 ± 7 m/s and the viscosity (308.15 K) was 0.719 ± 0.043 mPa·s. The mass density (308.15 K, Vibrating tube method) was 994.07 ± 0.31 kg/m3, the viscosity (313.15 K) was 0.6526 ± 0.04 mPa·s and the speed of sound (313.15 K) was 1526.8 ± 7 m/s. The viscosity (318.15 K) was 0.5972 ± 0.036 mPa·s and the speed of sound (318.15 K) was 1533 ± 7 m/s.
